Assay results from PubChem BioAssay (NCI).
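Briefly, cells in 96-well plates were exposed to five compound concentrations for 48 h, and endpoints were estimated by linear interpolation. GI50 = concentration required for 50% inhibition of growth. TGI marks complete inhibition of growth.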

Assays:
Test in all cases: DTP human tumour cell line panel, 48 h
[1] = tested on: 786-0 renal
[2] = tested on: A498 renal
[3] = tested on: A549 NSCLC
[4] = tested on: ACHN renal
[5] = tested on: BT-549 breast
[6] = tested on: CAKI-1 renal
[7] = tested on: CCRF-CEM leukemia
[8] = tested on: COLO 205 colon
[9] = tested on: DU-145 prostate
[10] = tested on: EKVX NSCLC
[11] = tested on: HCC-2998 colon
[12] = tested on: HCT-116 colon
[13] = tested on: HCT-15 colon
[14] = tested on: HL-60(TB) leukemia
[15] = tested on: HOP-62 NSCLC
[16] = tested on: HOP-92 NSCLC
[17] = tested on: HS 578T breast
[18] = tested on: HT29 colon
[19] = tested on: IGROV1 ovarian
[20] = tested on: K-562 leukemia
[21] = tested on: KM12 colon
[22] = tested on: LOX IMVI melanoma
[23] = tested on: M14 melanoma
[24] = tested on: MALME-3M melanoma
[25] = tested on: MCF7 breast
[26] = tested on: MDA-MB-435
[27] = tested on: MOLT-4 leukemia
[28] = tested on: NCI-H226 lung
[29] = tested on: NCI-H460 lung
[30] = tested on: NCI-H522 lung
[31] = tested on: NCI/ADR-RES ovarian
[32] = tested on: OVCAR-3 ovarian
[33] = tested on: OVCAR-4 ovarian
[34] = tested on: OVCAR-5 ovarian
[35] = tested on: OVCAR-8 ovarian
[36] = tested on: PC-3 prostate
[37] = tested on: RPMI-8226 leukemia
[38] = tested on: RXF 393 renal
[39] = tested on: SF-268 CNS
[40] = tested on: SF-295 CNS
[41] = tested on: SF-539 CNS
[42] = tested on: SK-MEL-2 melanoma
[43] = tested on: SK-MEL-28 melanoma
[44] = tested on: SK-MEL-5 melanoma
[45] = tested on: SK-OV-3 ovarian
[46] = tested on: SN12C renal
[47] = tested on: SNB-19 CNS
[48] = tested on: SNB-75 CNS
[49] = tested on: SR leukemia
[50] = tested on: SW-620 colon
[51] = tested on: T-47D breast
[52] = tested on: TK-10 renal
[53] = tested on: U251 CNS
[54] = tested on: UACC-257 melanoma
[55] = tested on: UO-31 renal
[56] = tested on: MDA-MB-231 breast
[57] = tested on: NCI-H23 lung
[58] = tested on: UACC-62 melanoma

Fc1ccc(Nc2nc(Nc3ccc(-c4nc5ccccc5[nH]4)cc3)c3cn[nH]c3n2)cc1
GI50 [1]: 1.63 µM
TGI [1]: 3.11 µM
GI50 [2]: 14.6 µM
TGI [2]: 27.7 µM
GI50 [3]: 2.75 µM
TGI [3]: 6.78 µM
GI50 [4]: 2.05 µM
TGI [4]: 5.08 µM
GI50 [5]: 2.36 µM
TGI [5]: 6.4 µM
GI50 [6]: 1.97 µM
TGI [6]: 5.41 µM
GI50 [7]: 2.63 µM
TGI [7]: 6.9 µM
GI50 [8]: 1.75 µM
TGI [8]: 3.67 µM
GI50 [9]: 1.87 µM
TGI [9]: 3.75 µM
GI50 [10]: 2.5 µM
TGI [10]: 8.28 µM
GI50 [11]: 1.57 µM
TGI [11]: 3.05 µM
GI50 [12]: 1.75 µM
TGI [12]: 3.58 µM
GI50 [13]: 1.76 µM
TGI [13]: 4.78 µM
GI50 [14]: 2.96 µM
TGI [14]: 6.92 µM
GI50 [15]: 2.04 µM
TGI [15]: 5.02 µM
GI50 [16]: 1.5 µM
TGI [16]: 3.19 µM
GI50 [17]: 2.12 µM
TGI [17]: 5.35 µM
GI50 [18]: 1.93 µM
TGI [18]: 4 µM
GI50 [19]: 1.75 µM
TGI [19]: 3.84 µM
GI50 [20]: 3.04 µM
TGI [20]: 7.41 µM
GI50 [21]: 1.64 µM
TGI [21]: 3.48 µM
GI50 [22]: 1.79 µM
TGI [22]: 3.62 µM
GI50 [23]: 2.01 µM
TGI [23]: 3.95 µM
GI50 [24]: 1.72 µM
TGI [24]: 3.51 µM
GI50 [25]: 1.74 µM
TGI [25]: 4.12 µM
GI50 [26]: 1.71 µM
TGI [26]: 3.23 µM
GI50 [27]: 2.55 µM
TGI [27]: 5.63 µM
GI50 [28]: 2.62 µM
TGI [28]: 7.07 µM
GI50 [29]: 1.99 µM
TGI [29]: 3.97 µM
GI50 [30]: 1.61 µM
TGI [30]: 4.02 µM
GI50 [31]: 2.11 µM
TGI [31]: 5.04 µM
GI50 [32]: 1.94 µM
TGI [32]: 4.42 µM
GI50 [33]: 1.6 µM
TGI [33]: 3.6 µM
GI50 [34]: 2.66 µM
TGI [34]: 7.62 µM
GI50 [35]: 2.37 µM
TGI [35]: 5.37 µM
GI50 [36]: 2.02 µM
TGI [36]: 4.53 µM
GI50 [37]: 2.3 µM
TGI [37]: 5.2 µM
GI50 [38]: 1.67 µM
TGI [38]: 3.4 µM
GI50 [39]: 2.11 µM
TGI [39]: 5.4 µM
GI50 [40]: 1.87 µM
TGI [40]: 4.08 µM
GI50 [41]: 1.77 µM
TGI [41]: 3.48 µM
GI50 [42]: 2.11 µM
TGI [42]: 4.95 µM
GI50 [43]: 1.88 µM
TGI [43]: 3.78 µM
GI50 [44]: 9.94 µM
TGI [44]: 21.9 µM
GI50 [45]: 5.03 µM
TGI [45]: 17.5 µM
GI50 [46]: 1.99 µM
TGI [46]: 4.47 µM
GI50 [47]: 3.16 µM
TGI [47]: 9.61 µM
GI50 [48]: 1.35 µM
TGI [48]: 3.57 µM
GI50 [49]: 2.22 µM
TGI [49]: 5.9 µM
GI50 [50]: 2.03 µM
TGI [50]: 4.24 µM
GI50 [51]: 1.9 µM
TGI [51]: 5 µM
GI50 [52]: 2.29 µM
TGI [52]: 5.29 µM
GI50 [53]: 2.1 µM
TGI [53]: 4.34 µM
GI50 [54]: 2 µM
TGI [54]: 4.37 µM
GI50 [55]: 1.62 µM
TGI [55]: 4.32 µM

CC1=C(C(=O)Nc2ccc(Cl)c(Cl)c2)C(c2cccc(Cl)c2)NC(=S)N1 (stereo not drawn)
GI50 [1]: 8.79 µM
TGI [1]: 18.3 µM
GI50 [3]: 11.2 µM
TGI [3]: 48.3 µM
GI50 [4]: 12.4 µM
TGI [4]: 37.1 µM
GI50 [5]: 16.4 µM
TGI [5]: 38.6 µM
GI50 [6]: 14.2 µM
TGI [6]: > 50 µM
GI50 [7]: 30.5 µM
TGI [7]: > 50 µM
GI50 [8]: 17.4 µM
TGI [8]: > 50 µM
GI50 [9]: 14.4 µM
TGI [9]: 44 µM
GI50 [10]: 12.2 µM
TGI [10]: 28.8 µM
GI50 [12]: 7.75 µM
TGI [12]: 21.5 µM
GI50 [13]: 15.1 µM
TGI [13]: > 50 µM
GI50 [14]: 16.5 µM
TGI [14]: 45.5 µM
GI50 [15]: 10.3 µM
TGI [15]: 19.2 µM
GI50 [16]: 14.2 µM
TGI [16]: > 50 µM
GI50 [18]: 16.1 µM
TGI [18]: > 50 µM
GI50 [19]: 8.83 µM
TGI [19]: 35 µM
GI50 [20]: 19.7 µM
TGI [20]: > 50 µM
GI50 [21]: 11.6 µM
TGI [21]: 37.6 µM
GI50 [22]: 12.8 µM
TGI [22]: > 50 µM
GI50 [23]: 9.75 µM
TGI [23]: 20.2 µM
GI50 [24]: 10.9 µM
TGI [24]: 29.8 µM
GI50 [25]: > 50 µM
TGI [25]: > 50 µM
GI50 [56]: 8.15 µM
TGI [56]: 19.3 µM
GI50 [26]: 14 µM
TGI [26]: 45.1 µM
GI50 [27]: 23.2 µM
TGI [27]: > 50 µM
GI50 [57]: 9.79 µM
TGI [57]: 20.9 µM
GI50 [29]: 24.3 µM
TGI [29]: > 50 µM
GI50 [32]: 10.5 µM
TGI [32]: 37.5 µM
GI50 [33]: 13.4 µM
TGI [33]: 42.5 µM
GI50 [35]: 12.4 µM
TGI [35]: 31.7 µM
GI50 [36]: 14.1 µM
TGI [36]: > 50 µM
GI50 [37]: 23 µM
TGI [37]: > 50 µM
GI50 [38]: 9.63 µM
TGI [38]: 23.6 µM
GI50 [39]: 16.5 µM
TGI [39]: 41.8 µM
GI50 [40]: 17.4 µM
TGI [40]: > 50 µM
GI50 [42]: 14.5 µM
TGI [42]: 27.1 µM
GI50 [43]: 15.6 µM
TGI [43]: > 50 µM
GI50 [44]: 2 µM
TGI [44]: 4.32 µM
GI50 [45]: 15.2 µM
TGI [45]: 33 µM
GI50 [46]: 8.4 µM
TGI [46]: 18.3 µM
GI50 [47]: 10.5 µM
TGI [47]: 24.9 µM
GI50 [48]: 30.4 µM
TGI [48]: > 50 µM
GI50 [49]: 17.1 µM
TGI [49]: > 50 µM
GI50 [50]: 15.6 µM
TGI [50]: 36.1 µM
GI50 [51]: 31.5 µM
TGI [51]: > 50 µM
GI50 [52]: 17.7 µM
TGI [52]: > 50 µM
GI50 [53]: 10.7 µM
TGI [53]: 29.6 µM
GI50 [58]: 8.1 µM
TGI [58]: 18.1 µM
GI50 [55]: 11.1 µM
TGI [55]: 24.9 µM
